The results in this text go back to PMC6030506 (Biochemistry, 2018).

Test [1] addresses T1, HDAC6 (catalytic domain 2, CD2) (Danio rerio, UniProt F8W4B7).
T1 sequence (F8W4B7 440-798): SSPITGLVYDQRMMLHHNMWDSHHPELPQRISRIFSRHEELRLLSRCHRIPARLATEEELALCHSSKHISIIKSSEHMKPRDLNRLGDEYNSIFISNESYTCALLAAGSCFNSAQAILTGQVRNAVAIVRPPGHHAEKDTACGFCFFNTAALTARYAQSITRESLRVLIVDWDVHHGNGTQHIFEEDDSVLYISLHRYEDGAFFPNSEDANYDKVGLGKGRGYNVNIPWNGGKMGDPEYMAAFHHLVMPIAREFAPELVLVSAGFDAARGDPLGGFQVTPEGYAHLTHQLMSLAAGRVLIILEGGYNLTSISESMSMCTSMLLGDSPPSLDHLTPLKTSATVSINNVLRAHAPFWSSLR
The test is described as follows: ITC. Format: binding. The conditions noted are these: […] HEPES pH […] KCl, […] glycerol, […] TCEP.

Another test addresses T2, HDAC8 (Homo sapiens, UniProt Q9BY41).
T2 sequence (Q9BY41 1-377): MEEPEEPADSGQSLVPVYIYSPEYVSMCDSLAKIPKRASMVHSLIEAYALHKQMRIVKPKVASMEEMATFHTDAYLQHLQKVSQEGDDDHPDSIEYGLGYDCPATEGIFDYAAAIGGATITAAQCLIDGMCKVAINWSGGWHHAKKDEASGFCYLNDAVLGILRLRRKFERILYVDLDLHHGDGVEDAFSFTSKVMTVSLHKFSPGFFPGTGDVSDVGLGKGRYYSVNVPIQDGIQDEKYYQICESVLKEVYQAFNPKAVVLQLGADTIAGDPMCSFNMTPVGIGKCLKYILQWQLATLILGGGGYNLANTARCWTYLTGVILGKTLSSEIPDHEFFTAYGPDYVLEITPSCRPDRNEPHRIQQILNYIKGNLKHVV
The test is described as follows: ITC. Format: binding. The conditions noted are these: […] HEPES pH […] KCl, […] glycerol, […] TCEP.

For `O=C(NO)c1ccc(CN(CCO)C(=O)Cc2ccccc2)cc1` [HPB], the Kd result (in test [1]; at HDAC8) was “we additionally studied the binding of the phenylhydroxamate derivative HPB” throughout.
Consider `O=C(CCCCCCNC(=O)c1cnc(N(c2ccccc2)c2ccccc2)nc1)NO` [Ricolinostat], for which the Kd result in test [1] is “the aliphatic hydroxamate inhibitor Ricolinostat”.
On to `O=C(CCCCCCC(=O)Nc1ccccc1)NO` [SAHA], for which, in test [1], the Kd result is “the aliphatic hydroxamate inhibitor suberoylanilide hydroxamic acid (SAHA)”.
